Data taken from patent US10166225B2, “Method for treating osteoporosis” (Exelixis, Inc., priority 2011, dated 2019).

How the values were obtained:
human osteoclasts = experiment: Osteoclast activity assay (resorption index CTX/TRACP 5b); type: cell-based; conditions: reference inhibitor, 1_M
Description: In the second part, the culture medium of human osteoclasts was replaced by new medium at day 7, and the formed mature osteoclasts were cultured for an additional 3 days, allowing them to resorb bone. Compound 1 was added into the culture medium at day 7. […] C-terminal cross-linked telopeptides of type I collagen (CTX) were measured in the culture medium collected at day 10 to quantitate bone resorption during days 7-10. […] was measured at day 7 to quantitate osteoclast number before Compound 1 was added. The CTX values were divided by the […] values, resulting as a resorption index that indicates mean osteoclast activity. […] The objective of this study was to investigate the effects of Compound 1 selected by the Sponsor on differentiation and activity of human osteoclasts and mouse osteoblasts in vitro. The effects on osteoclasts were studied using a model where bone marrow-derived human osteoclast precursor cells are cultured on bovine bone slices for 7 days in conditions favouring osteoclast differentiation, and allowed to differentiate into bone-resorbing osteoclasts. After completion of osteoclast differentiation at day 7, the culture medium was removed and new culture medium favouring osteoclast activity was added into the wells. The mature osteoclasts were then cultured for an additional 3 days, allowing them to resorb bone. In the osteoclast differentiation assay, the test compounds and a reference inhibitor osteoprotegerin (OPG) were added into cultures at day 0. In the osteoclast activity assay, the test compounds and a reference inhibitor E64 were added into cultures at day 7. Seven concentrations in 8 replicates were tested in both assays. Tartrate-resistant acid phosphatase 5b activity ([…]) was measured from the culture medium collected at day 7 as an index of the number of osteoclasts formed in each well during the differentiation period. C-terminal cross-linked telopeptides of type I collagen (CTX) was measured from the culture medium collected at day 10 to quantitate bone resorption during days 7-10. A human osteoclast culture system was developed for use in this study where CD34+ osteoclast precursor cells derived from human bone marrow (Poietics® Human Osteoclast Precursors, Lonza, Walkersville, USA) are cultured on bovine bone slices in the presence of appropriate growth factors, including M-CSF and RANK-ligand ([…] et al. 2009). The cells are first allowed to differentiate into mature bone-resorbing osteoclasts, and the formed osteoclasts are then allowed to resorb bone. The test and reference compounds are added into the cell cultures at the beginning of the differentiation and/or the resorption period, and their effects on the differentiation and/or resorbing activity of osteoclasts are determined. Secreted […] is determined from the culture medium after the differentiation period using a commercially available method (BoneTRAPÒ, IDS Ltd, Boldon, UK). Secreted […] describes accurately the number of osteoclasts formed in each well during the differentiation period. CTX is determined from the culture medium after the resorption period using a commercially available method (CrossLapsÒ for cultures, IDS Ltd, Boldon, UK). CTX describes accurately the amount of bone collagen degradation products released into the culture medium in each well during the resorption period. […] In this study, human bone marrow-derived CD34+ stem cells (10000 cells/well) were suspended in culture medium and allowed to attach to bovine bone slices in 96-well tissue culture plates. The culture medium (containing 10% FBS, OCP BulletKit® Lonza, Walkersville, USA) was supplemented with appropriate amounts of important growth factors favoring osteoclast differentiation and activity, including M-CSF (33 ng/ml, OCP BulletKit® Lonza, Walkersville, USA) and RANK-ligand (66 ng/ml, OCP BulletKit® Lonza, Walkersville, USA) in 200 μl of medium. The cells were incubated in a CO2 incubator in humidified atmosphere of 95% air and 5% carbon dioxide at 37° C. […]

[1] = women, subcutaneous denosumab 60 mg every 6 months; one month after injection; cited from earlier work
[2] = postmenopausal women, one subcutaneous injection, dose-dependent, for as long as 6 months; cited from earlier work

With `CC(C)C[C@H](NC(=O)[C@H]1O[C@@H]1C(=O)O)C(=O)NCCCCN=C(N)N` [Compound E64, reference compound] the “effect on osteoclast activity” value (human osteoclasts) was “inhibited significantly”.

For “denosumab: subcutaneous denosumab (60 mg) in the FREEDOM osteoporosis trial”, the “serum CTx levels” value [1] is listed as “decreased to levels below the premenopausal reference interval” and the “suppression of urinary NTx” value [2] is listed as “up to 81%”.
